Where “and” joins values, the source holds several entries; their conditions need not be identical. Equal entries are not always repeated. One block for each substance: values may come before it.
Experiments:
[1] = system: purified bovine fibrinogen clot; experiment: Fibrinolysis of purified fibrinogen clot, size of lytic zones; assay type: biochemical
Procedure: (§1) Fibrinogen containing plasminogen was reconstituted in phosphate buffered saline (PBS), pH 7.4 or in serum to a concentration of 3 mg/ml. Fibrin clots were prepared by the addition of 0.025 NIH units of human thrombin per […] fibrinogen solution. The mixture was decanted onto the lid of a culture dish and incubated for 60 min at room temperature. After clot formation, portions of 10 μl of PBS containing 1 μM scuPA, with or without an equimolar concentration of suPAR, were placed on several parts of the surface of the clot. The clot was incubated for 2 to 3 hr at 37° C., until the appearance of digestion areas on the surface. At that stage the clot was washed several times with PBS and incubated overnight with 0.2° trappan blue. On the following day, the clot was rinsed 4 is times with PBS and photographed The pictures were scanned with a Hoefer GS 300 scanning densitometer. The size of the lytic zones was calculated by the NIH image program.

[2] = system: human plasma clot; experiment: Fibrinolysis of clot formed by thrombin from human plasma (lytic zones / solubilized radioactivity); assay type: biochemical
Procedure: as §1, with “program. […]” for “program.”
Human fibrinogen (Sigma. St. Louis, Mo.) was radiolabeled with ^125I [Higazi, A A-R. & Abu-Much R. et al. J. Biol. Chem. 270:9472-9477 (1995)]. ^125I-labeled fibrinogen was added to a solution of PBS, pH 7.4, containing either 3 mg/ml fibrinogen and 1 μM glu-plasminogen or plasma. […] For determination of fibrinolysis, plasminogen activating agents (1 μM) or 1376 MAT cells, in a total volume of 10 μl each, were directly added to the center of the clot and after incubation for specific periods, the wells were washed and the radioactivity of the lavage solution was determined by means of a gamma counter. Fibrinolysis was also measured as previously described [Higazi, A A-R., et al. Biochem. J. 300:251-255 (1994)], by addition of 0.4 ml of serum or PBS, containing 25 nM of the plasminogen activator agent (scuPA, scuPA/suPAR complex or tcuPA). […] Fibrinolytic activity was determined by following the release from the ^125I-labeled fibrin clot of labeled soluble degradation products of fibrin and is illustrated in FIGS. 7 and 8.

[3] = system: bovine fibrinogen clot reconstituted in serum; experiment: Fibrinolysis of bovine fibrinogen clot reconstituted in serum; assay type: biochemical; settings: FIG. 5
Procedure: as §1
In an experiment designed to test the possibility that the different effects were related to the source of fibrinogen, the fibrinogen was removed from plasma by clotting with thrombin and removal of the clot by centrifugation to obtain serum. […] The possibility that the stimulatory activity was derived from the anticoagulants present in plasma was considered.

[4] = system: radiolabeled plasma-derived clot; experiment: Lysis of radiolabeled plasma-derived clot covered with serum or PBS containing the plasminogen activator; assay type: biochemical, human
Procedure: (§2) Human fibrinogen (Sigma. St. Louis, Mo.) was radiolabeled with ^125I [Higazi, A A-R. & Abu-Much R. et al. J. Biol. Chem. 270:9472-9477 (1995)]. ^125I-labeled fibrinogen was added to a solution of PBS, pH 7.4, containing either 3 mg/ml fibrinogen and 1 μM glu-plasminogen or plasma. Clots were formed in wells of tissue culture plates with an inner diameter of 16 mm (Costar, Cambridge, Mass.). To initiate the clot formation, 10 μl of a solution containing 2 NIH units of thrombin (Sigma. St. Louis, Mo.) were added to 0.4 ml of fibrinogen solution or to plasma. For determination of fibrinolysis, plasminogen activating agents (1 μM) or 1376 MAT cells, in a total volume of 10 μl each, were directly added to the center of the clot and after incubation for specific periods, the wells were washed and the radioactivity of the lavage solution was determined by means of a gamma counter. Fibrinolysis was also measured as previously described [Higazi, A A-R., et al. Biochem. J. 300:251-255 (1994)], by addition of 0.4 ml of serum or PBS, containing 25 nM of the plasminogen activator agent (scuPA, scuPA/suPAR complex or tcuPA). The plates were incubated at 37° C. in an incubator for the required time (about 2 hours, see legends to the Figures). Aliquots of 25 μl were removed at the specific time point for counting of the solubilized label in a gamma counter. Fibrinolytic activity was determined by following the release from the ^125I-labeled fibrin clot of labeled soluble degradation products of fibrin and is illustrated in FIGS. 7 and 8.

[5] = system: radiolabeled fibrinogen-derived clot; experiment: Lysis of radiolabeled fibrinogen-derived clot covered with serum or PBS containing the plasminogen activator; assay type: biochemical, human
Procedure: as §2, with “The plates were incubated at 37° C. in an incubator for the required time (about 2 hours, see legends to the Figures). Aliquots of 25 μl were removed at the specific time point for counting of the solubilized label in a gamma counter.” left out

[6] = system: radiolabeled fibrinogen-derived clot containing 1 μM glu-plasminogen; experiment: Fibrinolytic activity of suPAR-Sepharose precipitates on fibrinogen-derived clot; assay type: biochemical, human; settings: FIG. 10
Procedure: as §2, with “The plates were incubated at 37° C. in an incubator for the required time (about 2 hours, see legends to the Figures). Aliquots of 25 μl were removed at the specific time point for counting of the solubilized label in a gamma counter.” left out, “8. […]” for “8.”

[7] = system: clot prepared from IgG-depleted plasma; experiment: Lysis of clots derived from normal or IgG-depleted plasma; assay type: biochemical, human; settings: versus clot from normal plasma, FIG. 13
Procedure: as §2, with “The plates were incubated at 37° C. in an incubator for the required time (about 2 hours, see legends to the Figures). Aliquots of 25 μl were removed at the specific time point for counting of the solubilized label in a gamma counter.” left out, “8. […]” for “8.”

[8] = biological target: PAI-1 (Homo sapiens, UniProt P05121); settings: cited from earlier work
[9] = system: 125I radiolabeled fibrinogen clots; experiment: Lysis of 125I radiolabeled fibrinogen clot, activator added directly to the clot, solubilized radioactivity; assay type: biochemical, human; settings: 2 hrs
Procedure: as §2, with “The plates were incubated at 37° C. in an incubator for the required time (about 2 hours, see legends to the Figures). Aliquots of 25 μl were removed at the specific time point for counting of the solubilized label in a gamma counter.” left out

[10] = system: human fibrinogen; experiment: Fibrinolysis of human fibrinogen clot (not shown); assay type: biochemical; settings: human fibrinogen instead of bovine
Procedure: as §1

[11] = system: human IgG; experiment: Binding of 125I-suPAR to IgG, precipitation with protein G; settings: for precipitation by protein G from native plasma: 50 nM radiolabeled protein, FIG. 11
Procedure: Plasma (5 ml) were incubated with 1 ml of IgG (bound to beads, as described) for 2 hr, at 4° C. The beads were precipitated by centrifugation and the plasma was decanted and used for precipitation of radiolabeled suPAR or for formation of clots after addition of thrombin, as described herein before.
(§3) Binding of ^125I-suPAR to IgG was determined by incubation of 50 nM radiolabeled suPAR, 0.1 ml plasma and 0.5 ml of IgG protein, for 2 hr at 4° C. Following incubation, the mixture was centrifugated. The precipitate was washed 4 is times with PBS and the radioactivity incorporated into protein G was determined. Non-specific binding was determined by using plasma that had been depleted of IgG or by measuring the precipitation of irrelevant protein. All experiments were repeated at least three times.

[12] = system: IgG; experiment: Binding of suPAR to IgG with rabbit serum; settings: rabbit serum instead of human serum, data not shown
Procedure: as §3

[13] = system: plasminogen; settings: cited from earlier work
[14] = plasma derived clot covered by serum, FIG. 8

Chain of PAI-1 (P05121 24-402, species assumed): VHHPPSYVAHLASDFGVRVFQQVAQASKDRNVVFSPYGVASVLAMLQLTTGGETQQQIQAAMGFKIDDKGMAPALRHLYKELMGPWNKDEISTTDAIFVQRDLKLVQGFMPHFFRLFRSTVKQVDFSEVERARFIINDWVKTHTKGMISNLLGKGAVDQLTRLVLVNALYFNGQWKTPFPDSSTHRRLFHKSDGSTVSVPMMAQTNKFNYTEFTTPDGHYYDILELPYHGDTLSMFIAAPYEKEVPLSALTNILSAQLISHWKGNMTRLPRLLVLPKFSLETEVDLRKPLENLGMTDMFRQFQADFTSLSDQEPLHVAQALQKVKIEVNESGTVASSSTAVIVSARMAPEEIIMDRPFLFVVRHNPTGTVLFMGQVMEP

Substance: scuPA/suPAR complex: complex comprising single chain urokinase type plasminogen activator (scuPA) and soluble urokinase plasminogen activator receptor (suPAR)
lytic area ([1]; purified bovine fibrinogen clot, FIG. 1(A), two wells each, listed as scuPA and suPAR): 1.19 cm^2 and 1.05 cm^2 | size of the lytic area ([2]; human plasma clot, FIG. 2(A) lane (c), upper and lower panels, listed as scuPA and suPAR): 0.94 cm^2 and 0.90 cm^2 | efficiency of clot cleavage compared with scuPA alone ([3]; purified bovine fibrinogen added to serum): greater efficiency than by scuPA alone | change of activity when a plasma clot is used instead of a fibrinogen clot ([4]; FIG. 8): increase | effect of PBS instead of serum on the surface of the clot on fibrinolytic activity ([4]; plasma clot): not affected | time to half maximal fibrinolysis ([4]; plasma clot covered with serum, 25 nM activator): 54 min | time to half maximal fibrinolysis ([4]; plasma clot covered with serum, 50% decrease of the concentration of the complex, data not shown): 102 min | time needed for half maximal fibrinolysis ([4]; plasma clot covered with serum, doubling the concentration of the complex, data not shown): 33 min | activity on clot formed by clotting of plasma compared with tcuPA [4, 14]: greater than that of tcuPA | effect of serum covering the clot on fibrinolysis ([5]; clot formed by purified fibrin covered with serum or PBS, FIG. 7): stimulated | fibrinolytic activity relative to that obtained on a plasma-derived clot ([5]; purified fibrin clot covered with serum): about 60% | fibrinolytic activity in the absence of plasma-derived protein(s) [6]: little fibrinolytic activity | scuPA/suPAR-mediated fibrinolytic activity in the presence of plasma-derived protein(s) [6]: significantly increased | scuPA/suPAR mediated fibrinolysis of clot from IgG-depleted plasma [7]: markedly retarded | mechanism of PAI-1 inhibition [8]: competitive and reversible | susceptibility of activity to PAI-1 [8]: relatively resistant

precipitation by protein G from native plasma [11]: immunoprecipitates | precipitation with purified human IgG instead of plasma ([11]; FIG. 12): the same results were obtained | precipitation of suPAR with IgG-depleted plasma ([11]; IgG-depleted plasma versus native plasma): less than 25% | interaction between IgG and suPAR [12]: no interaction
Substance: suPAR: soluble urokinase plasminogen activator receptor
inhibition of scuPA activity in the presence of suPAR ([1]; unlabeled bovine fibrinogen clot, equimolar suPAR): about 40% | inhibition of scuPA activity in the presence of suPAR [9]: ~50% | enhancement of scuPA-mediated fibrinolysis by addition of suPAR ([2]; plasma clots, FIG. 2): up to 14 fold | inhibition of scuPA activity by suPAR [10]: also observed | effect of suPAR alone on fibrinolysis ([4]; plasma clot, FIG. 6): depends on the presence of scuPA | effect of addition of suPAR to tcuPA [4, 14]: small stimulatory effect | effect of suPAR on scuPA activity ([13]; plasmin substrate Spect PL): stimulated | effect of suPAR on scuPA-mediated plasminogen activation ([13]; synthetic plasmin substrate S-2251): inhibit

Substance: ATF: amino-terminal fragment of urokinase; blocks interaction of scuPA with suPAR [reference compound]
effect of ATF on the stimulatory effect of suPAR on scuPA-mediated fibrinolysis ([2]; plasma clot, FIG. 3): almost complete inhibition | effect of ATF on the stimulatory effect of suPAR ([3]; bovine fibrinogen clot in serum): can be abolished | effect of ATF on scuPA/suPAR mediated fibrinolysis ([4]; 250 nM ATF, plasma clot covered with serum): significantly inhibited

precipitation by protein G from native plasma [11]: not precipitated
Substance: plasminogen: radiolabeled plasminogen used as irrelevant protein control in the protein G precipitation [reference compound]

Reference: patent publication US6911316B1, “Medical uses of scuPA/suPAR complex” (Thrombotech Ltd., priority 1996, dated 2005)
